We go through three compounds from PubChem BioAssay (NCI).

Among the test systems are CCRF-CEM leukemia; COLO 205 colon; EKVX NSCLC; HCC-2998 colon; HCT-15 colon; HOP-62 NSCLC; LOX IMVI melanoma; MALME-3M melanoma; MCF7 breast; NCI-H460 lung; OVCAR-3 ovarian; OVCAR-8 ovarian; RPMI-8226 leukemia; RXF 393 renal; SF-295 CNS; SK-MEL-28 melanoma; SNB-19 CNS; SW-620 colon; UACC-257 melanoma; UO-31 renal.
Common to all, as to assay: NCI anticancer screen, dose series, 48 h

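Exposure lasted 48 hours, with cells grown in 96-well plates and compounds tested at five concentrations. TGI marks complete inhibition of growth.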 A value given as a limit tells only on which side of the number the result lay.

For `CCC1=CC2CN3CCc4c([nH]c5ccccc45)C(C(=O)OC)(C2)C13` (stereo not given), the TGI in the experiment with CCRF-CEM leukemia was 252 µM; with COLO 205 colon, 80.6 µM; in the experiment with EKVX NSCLC, 78.2 µM; with HCC-2998 colon, more than 92.6 µM; with HCT-15 colon, 90.8 µM; in the experiment on HOP-62 NSCLC, 86.1 µM. Further, the TGI in the experiment with LOX IMVI melanoma worked out at 121 µM; in the experiment with MALME-3M melanoma it was 92.8 µM; with MCF7 breast, 95.4 µM; in the experiment with NCI-H460 lung it was 102 µM; in the experiment on OVCAR-3 ovarian, 107 µM; with OVCAR-8 ovarian, 14.7 µM. In addition, the TGI with RPMI-8226 leukemia worked out at 137 µM; in the experiment with RXF 393 renal, 78.7 µM; with SF-295 CNS, 90.1 µM; with SK-MEL-28 melanoma, 98.4 µM; with SNB-19 CNS it was 68.4 µM; in the experiment with SW-620 colon, 82.7 µM. For the same compound, the TGI in the experiment on UACC-257 melanoma was found to be 104 µM; with UO-31 renal it was 71.4 µM.

`CCOC(=O)c1csc(NC(=O)CCN2CCCCC2)n1`: the TGI in the experiment with CCRF-CEM leukemia, in the experiment with COLO 205 colon, in the experiment on EKVX NSCLC, with HCC-2998 colon, in the experiment with HCT-15 colon and in the experiment with HOP-62 NSCLC was more than 100 µM each time. The TGI in the experiment on LOX IMVI melanoma, in the experiment on MALME-3M melanoma, in the experiment on MCF7 breast, in the experiment with NCI-H460 lung, in the experiment on OVCAR-3 ovarian and in the experiment with OVCAR-8 ovarian was more than 100 µM in each case. For the same compound, the TGI in the experiment with RPMI-8226 leukemia, in the experiment on RXF 393 renal, in the experiment on SF-295 CNS, with SK-MEL-28 melanoma, in the experiment with SNB-19 CNS and in the experiment with SW-620 colon was more than 100 µM each time. In addition, the TGI in the experiment on UACC-257 melanoma and in the experiment with UO-31 renal was more than 100 µM throughout.

As for `CN1C2CC(=O)CC1[C@H](O)[C@@H]2O`, the TGI with CCRF-CEM leukemia, in the experiment with COLO 205 colon, with EKVX NSCLC, in the experiment on HCC-2998 colon, in the experiment on HCT-15 colon and in the experiment with HOP-62 NSCLC was more than 100 µM each time. For the same compound, the TGI with LOX IMVI melanoma, in the experiment with MALME-3M melanoma, in the experiment on MCF7 breast, in the experiment with NCI-H460 lung, with OVCAR-3 ovarian and in the experiment on OVCAR-8 ovarian was more than 100 µM throughout. For the same compound, the TGI in the experiment on RPMI-8226 leukemia, in the experiment with RXF 393 renal, with SF-295 CNS, in the experiment on SK-MEL-28 melanoma, in the experiment on SNB-19 CNS and in the experiment on SW-620 colon was more than 100 µM each time. The TGI with UACC-257 melanoma and with UO-31 renal was more than 100 µM each time.
